Consider one compound from paper PMC8770593 (Nature Communications, 2022).

The target of series [1] is T1, α1BARXTAL (stabilized α1BAR with DARPin D12 fusion) (Homo sapiens, UniProt P35368, D191Y/E194V/F334L/G183V/I116T/P349L/S150Y/S168C/S95C/T295M/V124M/V333L).
T1 construct: deletion of N-terminal residues M1–N34 and intracellular loop three (ICL3) residues K249–L283, and fusion of DARPin D12[43],[68],[69] to residue C350^7.55; expressed in transfected cells; host or cells: HEK293T/17
As to the kind of experiment: HTRF competition ligand-binding assay on whole transfected HEK293T/17 cells (QAPB tracer).

In series [2] the target is α1BARXTAL-ΔD12 (stabilized α1BAR without DARPin D12) (Homo sapiens, UniProt P35368, D191Y/DEL249-283/E194V/F334L/G183V/I116T/P349L/S150Y/S168C/S95C/T295M/V124M/V333L). Described as above. Conditions: construct α1BARXTAL-∆D12, competition with Cyclazosin against QAPB tracer, one value per experiment date, read-out: Calculated pKi values (converted).
Chain of α1BARXTAL-ΔD12 (stabilized α1BAR without DARPin D12) (P35368 with tags, fused parts or gaps with the stated changes): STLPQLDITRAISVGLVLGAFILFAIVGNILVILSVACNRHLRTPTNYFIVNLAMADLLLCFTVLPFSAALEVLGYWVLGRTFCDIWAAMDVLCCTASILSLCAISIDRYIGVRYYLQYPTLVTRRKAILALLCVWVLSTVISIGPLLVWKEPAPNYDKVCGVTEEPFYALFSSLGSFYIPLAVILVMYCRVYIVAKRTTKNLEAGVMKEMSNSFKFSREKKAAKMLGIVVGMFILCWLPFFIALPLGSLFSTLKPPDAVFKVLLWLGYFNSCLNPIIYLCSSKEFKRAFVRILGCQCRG
The target in a further series is T2, wild-type α1BAR (Homo sapiens, UniProt P35368).
T2 sequence (P35368 35-520 limits assumed): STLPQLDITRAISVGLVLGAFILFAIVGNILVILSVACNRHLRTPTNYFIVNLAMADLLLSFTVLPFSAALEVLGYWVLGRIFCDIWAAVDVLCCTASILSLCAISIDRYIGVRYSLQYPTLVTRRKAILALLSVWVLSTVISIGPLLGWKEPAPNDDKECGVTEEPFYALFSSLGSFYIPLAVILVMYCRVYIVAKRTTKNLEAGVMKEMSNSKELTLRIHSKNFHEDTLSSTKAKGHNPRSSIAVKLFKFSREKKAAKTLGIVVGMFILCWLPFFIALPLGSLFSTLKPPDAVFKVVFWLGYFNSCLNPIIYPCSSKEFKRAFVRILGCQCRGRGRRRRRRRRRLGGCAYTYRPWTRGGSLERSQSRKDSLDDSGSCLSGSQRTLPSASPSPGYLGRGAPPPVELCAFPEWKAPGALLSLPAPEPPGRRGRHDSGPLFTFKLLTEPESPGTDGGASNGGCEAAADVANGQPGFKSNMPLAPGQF
Briefly: HTRF ligand-binding assay on whole transfected HEK293T/17 cells (QAPB saturation; competition with QAPB tracer).

Details of series [3]: method as in ref 49 (a number printed in a supplementary file, which may have a reference list of its own: not looked up in the article's list). Conditions: computationally estimated; cited from earlier work.
Another series concerns the target T3, wild-type α2CAR (Homo sapiens, UniProt P18825).
T3 sequence (P18825 37-462 limits assumed): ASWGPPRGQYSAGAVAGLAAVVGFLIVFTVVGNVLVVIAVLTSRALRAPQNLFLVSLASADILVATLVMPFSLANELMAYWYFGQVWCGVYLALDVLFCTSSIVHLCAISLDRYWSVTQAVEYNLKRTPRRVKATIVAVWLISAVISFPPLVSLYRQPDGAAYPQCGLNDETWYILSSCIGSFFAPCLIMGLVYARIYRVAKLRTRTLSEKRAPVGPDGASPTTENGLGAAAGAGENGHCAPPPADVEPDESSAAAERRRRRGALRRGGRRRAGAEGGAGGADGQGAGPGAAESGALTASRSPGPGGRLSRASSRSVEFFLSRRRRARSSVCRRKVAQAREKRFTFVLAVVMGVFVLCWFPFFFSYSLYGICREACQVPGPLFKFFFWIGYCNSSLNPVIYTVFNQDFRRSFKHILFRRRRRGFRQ
As to the kind of experiment: HTRF ligand-binding assay on whole transfected HEK293T/17 cells (QAPB saturation; competition with QAPB tracer). Conditions: pKi (competition binding), competition with 50 nM QAPB tracer, whole cells, mean. Background: TR-FRET usually uses a lanthanide donor and a delayed reading to cut background.

Series [4] concerns the target T4, α1BAR-α2C(L^45.52) chimera (V197^45.52→L) (Homo sapiens, UniProt P35368, V197L).
T4 sequence (P35368 35-520 V197L): T2 sequence (P35368 35-520 limits assumed) with V163L
The description is as above.

Series [5] has as its target α1BAR-α2C(YLLY;N^2.64) chimera (Homo sapiens, UniProt P35368, A122L/L105N/L314Y/V197L/W121Y). Described as above.
For series [6], the system named is α1BAR expressed in mammalian cells. The note with it: radioligand binding; ref Proudman, R. G. W., et al., Pharmacol. Res. Perspect. 8 (2020); cited from earlier work.

Changes are numbered by the printed parent chain. Values joined by “and” are separate entries in the source; they are usually repeats but may differ in a detail not shown here. Identical values can stand only once. Like-named read-outs stand apart in the source and are kept apart here.

T1 sequence (P35368 with tags, fused parts or gaps with the stated changes): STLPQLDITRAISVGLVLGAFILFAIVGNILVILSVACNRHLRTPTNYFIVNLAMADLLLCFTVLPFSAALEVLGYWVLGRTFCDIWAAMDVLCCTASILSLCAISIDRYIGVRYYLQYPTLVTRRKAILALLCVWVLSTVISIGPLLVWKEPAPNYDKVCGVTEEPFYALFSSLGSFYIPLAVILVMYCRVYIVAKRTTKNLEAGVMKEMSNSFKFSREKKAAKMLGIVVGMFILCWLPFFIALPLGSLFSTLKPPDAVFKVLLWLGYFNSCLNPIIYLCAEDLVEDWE
Chain of α1BAR-α2C(YLLY;N^2.64) chimera (P35368 35-520 L105N/W121Y/A122L/V197L/L314Y): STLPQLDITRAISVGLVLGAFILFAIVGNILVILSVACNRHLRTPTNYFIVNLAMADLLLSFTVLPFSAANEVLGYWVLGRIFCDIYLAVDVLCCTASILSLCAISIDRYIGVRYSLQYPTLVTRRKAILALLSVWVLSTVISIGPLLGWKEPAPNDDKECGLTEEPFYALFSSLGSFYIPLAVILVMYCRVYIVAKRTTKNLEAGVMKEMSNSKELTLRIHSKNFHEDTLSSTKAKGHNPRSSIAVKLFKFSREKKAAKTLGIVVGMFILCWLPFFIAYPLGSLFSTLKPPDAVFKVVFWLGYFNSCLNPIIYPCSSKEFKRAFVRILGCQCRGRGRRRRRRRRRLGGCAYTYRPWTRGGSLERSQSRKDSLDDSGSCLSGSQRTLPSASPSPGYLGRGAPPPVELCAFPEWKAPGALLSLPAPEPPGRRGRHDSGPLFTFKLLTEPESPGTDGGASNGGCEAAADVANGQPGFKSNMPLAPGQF

Broadly, the pKa is the pH at which an ionisable group is half protonated. With `COc1cc2nc(N3CCN(C(=O)c4ccco4)[C@H]4CCCC[C@H]43)nc(N)c2cc1OC` (relative stereo) [cyclazosin, [4-(4-amino-6,7-dimethoxyquinazolin-2-yl)-cis-octahydroquinoxalin-1-yl] furan-2-ylmethanone], the Ki in series [1] (competition with 2 nM QAPB tracer, whole cells, read-out: Ki) was 6.17 nM; in series [1] (construct α1BARXTAL, competition with Cyclazosin against QAPB tracer, HTRF, one value per experiment date, read-out: Calculated pKi values (converted)), 11 nM and 3.94 nM and 5.44 nM; in series [2], 9.9 nM and 6.69 nM and 2.8 nM; on wild-type α1BAR (Ki, competition with 2 nM QAPB tracer, whole cells), 1.02 nM; at wild-type α2CAR, 339 nM; in series [4] (pKi (competition binding), competition with 2 nM QAPB tracer, whole cells, mean), 1.1 nM. Besides, the Ki in series [5] was 7.24 nM. Further, the “higher affinity for wild-type α1BAR compared to α2CAR” value on wild-type α1BAR (ratio of affinities α1BAR vs α2CAR) is around 330 fold. In series [3], the pKa is listed as 9. Further, the “effect of the substitution on affinity” value in series [4] (V197^45.52→L vs wild-type α1BAR) is listed as “negligible”. In series [6], the “affinity as pK value (RLBA)” value is listed as 8.68.
